Like-named read-outs stand apart in the source and are kept apart here.
Assays:
[1] = biological target: T1, human CB1 receptor (Homo sapiens, UniProt P21554); assay: Human CB1 receptor binding, [3H] CP-55,940 displacement on HEK cell membranes; design: expressed in transfected cells; host or cells: HEK cells, doxycycline-induced; membrane preparation
Method in brief: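 Radioligand displacement: [3H] CP-55,940 at […] final, 1 μg membrane protein per well from HEK cells with tetracycline-inducible human CB1, 60 min at room temperature, pH 7.4 Tris/NaCl/MgCl2/EGTA/BSA buffer. 50 μM WIN-55,212-2 set nonspecific binding; bound label filtered, counted, and fitted for EC50 and Ki values.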

[2] = biological target: T1, human CB1 receptor; assay: [35S] GTPγS binding on membranes of CHO cells expressing the human CB1 receptor (agonism); assay type: biochemical; design: expressed in transfected cells; membrane preparation
Procedure: Membrane preparation: CHO cells expressing the human CB1 receptor were grown to 80% confluence in Ham's F-12 Nutrient Medium (Invitrogen) containing 10% fetal bovine serum (Invitrogen), 1% pen/strep (Invitogen), 1% Nonessential amino acids (Invitrogen) and 500 μg/ml G418 (Invitrogen). Cells were released from flasks using Cell Dissociation Buffer (Invitrogen). Cells were pelleted by centrifugation at 500×G for 5 minutes. Membranes were prepared by resuspending cells in ice cold Assay Buffer (25 mM Tris pH 7.4, 5 mM EDTA, 5 mM EGTA, Complete Protease Inhibitor (Roche)). Cells were lysed with 12 strokes of a dounce homogenizer. Unlysed cells were pelleted by centrifugation at 500×G for 5 minutes. Membranes were pelleted by centrifugation at 25,000×G for 30 minutes. Membranes were resuspended in TEE, dounced 12 strokes, and pelleted a second time at 25,000×G for 30 minutes. Membrane pellet was resuspended in 50 mM Tris pH 7.4, 100 mM NaCl, 3 mM MgCl2, 0.2 mM EGTA, Complete Protease Inhibitor (Roche). Protein concentration was determined using the Micro-BCA Protein Assay Kit (Pierce) using BSA as a standard. Membranes were frozen and stored at −80 degrees Celsius until use.
GTPγS Binding: 40 μl of test compound was incubated with 20 μl of [^35S] GTPγS (Perkin Elmer) (1250 Ci/millimole) and 140 μl of membrane homogenate (5 μg/well) in polypropylene 96-well plates (Corning). Final reaction conditions were 50 mM Tris pH 7.4, 100 mM NaCl, 3 mM MgCl2, 0.2 mM EGTA, 0.04% BSA. After incubation at 37 degrees Celsius for 45 minutes reactions were harvested by vacuum filtration through Unifilter GF/B-96 filters (Perkin Elmer) using a FilterMate Plate Harvester (Perkin Elmer). Filters were rinsed 4 times with ice cold 50 mM Tris pH 7.4, 3 mM MgCl2, 0.2 mM EGTA and dried at 50 degrees Celsius for at least 30 minutes. 40 μl of Microscint-20 (Perkin Elmer) was added per well, and plates were counted using a Top-Count Microplate Scintillation Counter (Perkin Elmer). Binding data were analyzed and EC50 values were calculated using Graph Pad Prism 4.0 Software.

[3] = human CB1, CHO cell membranes, read-out: GTPγS EC50
[4] = GTPγS EC50, human CB1, CHO cell membranes

T1 sequence (P21554 whole entry): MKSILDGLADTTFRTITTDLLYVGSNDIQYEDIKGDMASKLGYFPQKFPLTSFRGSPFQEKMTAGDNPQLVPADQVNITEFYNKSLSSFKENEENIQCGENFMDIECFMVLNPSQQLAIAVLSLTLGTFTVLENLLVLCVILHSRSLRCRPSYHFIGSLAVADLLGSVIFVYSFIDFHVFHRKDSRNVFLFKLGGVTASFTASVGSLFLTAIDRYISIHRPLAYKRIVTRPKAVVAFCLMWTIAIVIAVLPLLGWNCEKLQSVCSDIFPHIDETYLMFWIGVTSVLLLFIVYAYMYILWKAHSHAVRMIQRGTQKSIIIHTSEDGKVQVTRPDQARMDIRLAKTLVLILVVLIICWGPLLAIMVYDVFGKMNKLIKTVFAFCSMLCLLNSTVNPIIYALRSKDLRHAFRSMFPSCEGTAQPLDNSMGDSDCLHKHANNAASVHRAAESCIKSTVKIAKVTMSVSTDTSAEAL

Compound | Ki ([1]; read-out: CB1 Ki) | EC50 [2, 3] | Ki ([1]; CB1 Ki) | EC50 [2, 4]
CC(C)(C)[C@H](NC(=O)c1nn(Cc2ccc(F)cc2)c2ccccc12)C(=O)NCc1nc2n(n1)CCC2 [Example 415] | 8.69 nM | 10.8 nM | – | –
CC(C)(C)C(NC(=O)c1nn(Cc2ccc(F)cc2)c2ccccc12)c1nnc(NC(N)=O)o1 (stereo not shown) [Example 118] | 0.7 nM | 23.8 nM | – | –
CC(C)(C)[C@H](NC(=O)c1nn(Cc2ccc(F)cc2)c2ccccc12)C(=O)N1CCC(F)(F)CC1 [Example 332] | – | – | 15 nM | 27.3 nM
Cc1cc2c(C(=O)N[C@H](C(N)=O)C(C)(C)C)nn(Cc3ccc(F)cc3)c2cc1F [Example 509] | – | – | 0.45 nM | 7.55 nM
CC(C)(C)C(NC(=O)c1nn(Cc2ccc(F)cc2)c2ccccc12)C(=O)NC1(CO)CC1 (stereo not shown) [Example 160] | – | – | 1.45 nM | 32.3 nM
CC(C)(C)[C@H](NC(=O)c1nn(Cc2ccc(C(F)(F)F)cc2)c2ccccc12)C(=O)NCCO [Example 255] | – | – | 13.1 nM | 130 nM
CC(C)(C)[C@H](NC(=O)c1nn(Cc2ccc(F)cc2)c2ccccc12)C(=O)NCCNS(=O)(=O)C1CC1 [Example 99] | 0.18 nM | 0.5 nM | – | –
CC(C)(C)[C@H](NC(=O)c1nn(Cc2ccc(F)cc2)c2ccccc12)C(=O)N1CCCC(F)(F)C1 [Example 333] | – | – | 1.49 nM | 3.75 nM
CC(C)(C)[C@H](NC(=O)c1nn(Cc2ccc(F)cc2)c2ccccc12)C(=O)NCCc1n[nH]c(=O)[nH]1 [Example 506] | 1.3 nM | 8.97 nM | – | –
CC(C)(C)[C@H](NC(=O)c1nn(Cc2ccc(C#N)cc2F)c2c(F)c(F)ccc12)C(=O)NCc1nnc(C(N)=O)o1 [Example 365] | 11.9 nM | 34.8 nM | – | –
CC(C)(C)[C@H](NC(=O)c1nn(Cc2ccc(F)cc2)c2ccccc12)C(=O)NC1CCOC1 (stereo partly shown) [Example 281] | – | – | 4.83 nM | 37.4 nM
CC(C)(C)[C@H](NC(=O)c1nn(Cc2ccc(F)cc2)c2ccccc12)C(=O)NCc1nnc(C(N)=O)o1 [Example 11, N-{(1S)-1-[({[5-(aminocarbonyl)-1,3,4-oxadiazol-2-yl]methyl}amino)carbonyl]-2,2-dimethylpropyl}-1-(4-fluorobenzyl)-1H-indazole-3-carboxamide] | 0.29 nM | 0.55 nM | – | –
CC(C)(C)C(NC(=O)c1nn(Cc2ccc(C#N)cc2)c2c(Cl)cccc12)C(=O)NCCNS(=O)(=O)C1CC1 (stereo not shown) [Example 202] | 0.8 nM | 3.07 nM | – | –
CC(C)(C)C(NC(=O)c1nn(Cc2ccc(F)cc2)c2c(F)cccc12)C(=O)NCc1nnc(C(N)=O)o1 (stereo not shown) [Example 180] | 0.37 nM | 3.81 nM | – | –
CC(C)(C)[C@H](NC(=O)c1nn(Cc2ccc(F)cc2)c2ccccc12)C(=O)NCC(=O)Nc1nncs1 [Example 519] | 0.95 nM | 5.77 nM | – | –
CC(C)(C)[C@H](NC(=O)c1nn(Cc2ccc(F)cc2)c2ccccc12)C(=O)NCCn1ccccc1=O [Example 502] | 17.3 nM | 36.9 nM | – | –
CC(C)(C)C(NC(=O)c1nn(Cc2ccc(C#N)cc2F)c2ccccc12)C(=O)NC1CC1 (stereo not shown) [Example 87] | – | – | 2.26 nM | 46.1 nM
CC(C)(C)[C@H](NC(=O)c1nn(Cc2ccc(C#N)cc2)c2c(F)cccc12)C(=O)NC[C@H]1C[C@H]1CO [Example 490] | – | – | 12.4 nM | 63.1 nM
CC(C)(C)[C@H](NC(=O)c1nn(Cc2ccc(F)cc2)c2ccccc12)C(=O)N1C[C@@H](O)[C@H](O)C1 [Example 247] | – | – | 0.65 nM | 0.95 nM
CC(C)(C)[C@H](NC(=O)c1nn(Cc2ccc(C#N)cc2)c2c(F)cccc12)C(=O)NC[C@H](O)CO [Example 113] | – | – | 7.79 nM | 188 nM
